From patent publication US7476729B2, “Dbait and uses thereof” (Institut Curie, priority 2003, dated 2009)
“Also recorded” adds a separate entry of the source.

Experiments:
Ku complex = target: T1, Ku complex (Homo sapiens, UniProt P12956+P13010); assay: Band-shift assay with Hep2 nuclear protein extracts; assay type: binding; settings: 10 nM 32P radio-labelled Dbait, 0-320 ng/μL Hep2 nuclear proteins, 30° C., 10 minutes
T1 construct: in the presence of nuclear protein extracts from Hep2 cells according to standard protocol; endogenous in cells; host or cells: Hep2 cells (nuclear protein extract)
Method: As the first step to dissect the mechanism of action of Dbait molecules, a series of band-shift assays were carried out with different ^32P radio-labelled Dbait molecules in the presence of nuclear protein extracts from Hep2 cells according to standard protocol. Typically, 10 nM ^32P radio-labelled Dbait molecules were incubated in the presence of various concentrations of nuclear proteins (0, 10, 20, 40, 80, 160, and 320 ng/μL) at 30° C. for 10 minutes in TBE buffer. Then the samples were loaded on a 5% acrylamide native gel. The electrophoresis was run at 95V for 2 hours at 4° C. The gel was dried and scanned by phosphorimager (Molecular Dynamics).
For 32-bp Dbait molecules, the intensity of the retarded band 1 increases and then decreases as the concentration of protein increases, while the intensity of the retarded band 2 increases as a function of the concentration of nuclear protein extracts.
It is likely that band 1 has one Ku70/80 complex bound to the 16 to 32-bp Dbait, whereas the band 2 has two Ku70/80 complexes bound to the 32-bp Dbait molecules. Control experiments performed with purified Ku proteins confirmed this interpretation.

GMA32 cells [1] = assay: FACS analysis of sub-G1 cells (cell death) in GMA32 cells; assay type: cell-based, Chinese hamster; settings: GMA32, 4.5 μg Dbait with lipofectamine, no irradiation or mitotic inhibitor
Method: (§1) The GMA32 Chinese hamster fibroblast cells permissive of DNA breaks were maintained in MEM medium (Gibco) supplemented with 1 mM sodium pyruvate, 2 mM glutamine, 1×MEM non essential amino acids, 1× penicillin/streptomycin and 10% horse serum. Typically, 2×10^5 to 4×10^5 cells were seeded in medium without antibiotics, in 5 cm diameter Petri dishes 24 hours before the transfection of different Dbait molecules (4.5 μg) with lipofectamine 2000 (LifeTechnologies) as transfection agent (in a 1:3 ratio), according to the manufacturer's instructions. At the end of the transfection the cells were either irradiated (4 Gy) or treated with mitotic inhibitors: nocodazole (200 nM), navelbine (100 nM) or taxol (200 nM).
(§2) About 16 hour later the drug was removed and the cells were allowed to recover. Cell irradiation was performed with γ-rays from a ^137Cs source. After a 24 hours recovery, the cells were collected and used either for FACS, western blot analyses or to determine the clonogenicity (survival) and the effect of each treatment.
The M1 phase represents the percentage of cells in sub-G1 stage indicative of cell death.
The experiments were performed with a FACS calibur flow cytometer (Becton Dickinson). Cells were collected, suspended in 1 ml of cold GM buffer (6.5 mM glucose, 137 mM NaCl, 5.4 mM KCl, 2 mM Na2HPO4, 1 mM KHPO4, 0.5 mM EDTA), and stored at 4° C. for at least 2 hours after addition of 3 ml of cold 100% ethanol.
At that stage, cells were eventually washed with 1×PBS, then stained for 30 minutes at room temperature in PI solution (50 μg/ml propidium iodide, 25 μg/ml RNase A in 1×PBS buffer). 10,000 events were analyzed with Cellquest software, and cell aggregates were gated out. The percentage of cells with a sub-G1 content of DNA was scored.

[2] = system: γ-H2AX foci in GMA32 cells; assay: Immunodetection of γ-H2AX DSB foci in GMA32 cells; assay type: cell-based, Chinese hamster; settings: GMA32, Dbait with lipofectamine, no irradiation
Method: Under the same conditions, the immunodetection of DSB foci of γ-H2AX phosphorylated on serine 139 by γ-H2AX labeling (bright dots or patches in nuclei) was performed in the untreated GMA32 cells, the cells transfected alone, or transfected with different Dbait molecules by lipofectamine. The counterstaining of cell membranes and nuclei were achieved by FITC-DiOC6 and DAPI. Similar effects of Dbait molecules were observed (FIG. 3.2). […] This provides visual evidence that these Dbait molecules can be used for trapping proteins involved in DSB repair via NHEJ pathway.
For immunodetection, the cells were grown on coverslip in 5 cm diameter Petri dishes 24 hours before the transfection with different Dbait molecules. One day after the transfection, FITC-DiOC6 (Molecular probes) was added in the medium 5 minutes at 37° C. (to counterstain the membranes). After 3 washing cycles, the cells were fixated with 4% PFA for 20 minutes.
After additional washing, γ-H2AX phosphorylated on serine 139 (γ-H2AX) was detected with. rabbit anti-γ-H2AX antibody (4411-PC, Trevigen) diluted 1/100 in 1×PBS, 1% BSA. Cells were washed three times with 1×PBS, 0.5%, TritonX-100, then incubated for 1 hour at room temperature with goat anti-rabbit antibodies Alexa 594 (Molecular Probes) diluted 1/100 in 1×PBS, 1% BSA. Cells were visualized by epifluorescence microscopy.

[3] = system: p53 serine 15 phosphorylation in GMA32 cells; assay: Western blot of p53 serine 15 phosphorylation in GMA32 cells; assay type: cell-based, Chinese hamster; settings: GMA32, Dbait with lipofectamine, no irradiation or mitotic inhibitor
Method: Further experiment was carried out in order to look for evidence of DNA damage signaling. The protein p53 is a well known major protein in mediating DNA damage signaling and in coordinating appropriate responses (DNA repair, apoptosis, etc.) by changing its phosphorylation status. In particular, the phosphorylation of serine 15 residue is involved in the interaction with MDM2 protein which acts as a feed back control Thus, the phosphorylation status of the serine 15 of p53 was assessed by Western blot.
For Western blot analysis, cells were lysed in Laemmli buffer. Equal amounts of lysates were resolved in 12% polyacrylamide gels. Proteins were transferred to nitrocellulose membranes, which were blocked with 5% nonfat milk (1 hour) before overnight incubation with anti-p53Ser15 antibody (9284, Cell Signaling) diluted 500 folds in TBST buffer (10 mM Tris-HCl pH7.5, 150 mM NaCl, 0.1% Tween 20) containing 5% nonfat milk. Blots were then incubated with horseradish peroxidase-conjugated goat anti-rabbit IgG secondary antibodies (P0448, Dako) diluted 1/5000 in TBST. Protein-antibody complexes were detected by enhanced chemiluminescence (RPN2106 ECL, Amersham).

GMA32 cells [4] = assay: Clonogenicity (clonal survival) assay in GMA32 cells with irradiation or mitotic inhibitors; assay type: cell-based, Chinese hamster
Method: as §1, §2
The effect of radiosensitization and chemosensitization of Dbait molecules in GMA32 cells was evaluated by clonogenicity (clonal survival) assay. For the clonogenicity assay, serial dilutions were made after counting the cells to seed 5 cm Petri dishes with different amounts of cells. The number of cells range from 100-200 (control cells) to 3000 (transfected or/and treated cells). Ten days after, the cells (forming clone) were fixed with 4% paraformaldehyde (20 minutes), then colored with methylene blue (15 minutes), and the number of clone in each plate (in triplicates) was scored.
These drugs are known as potent inhibitors of either polymerization or depolymerization of microtubules. Dbait32 (SEQ ID NO: 1) and Dait32H (SEQ ID NO: 1) were able to enhance to cytotoxic activity of these mitotic inhibitors.

[5] = system: γ-H2AX foci in Hela cells; assay: Immunodetection of DSB sites (γ-H2AX foci) in Hela cells after irradiation; assay type: cell-based, human; settings: 2 μg Dbait, two hours after 2 Gy irradiation
Method: Transfection and irradiation protocoles were similar to those described above. For immunodetection, the cells were grown on surface coverslip in 5 cm diameter Petri dishes, transfected with 2 μg Dbait32H-FITC (SEQ ID NO: 1) molecules labeled with FITC with Superfect (Qiagene) according to the manufacturer's instruction. Four hours after the beginning of the transfection, cells were irradiated (2 Gy), then rest for 2 hours in the medium at 37° C. After 3 washing cycles, the cells were fixated with 2% PFA for 10 minutes. After one additional washings, the presence of γ-H2AX was detected with rabbit anti-γ-H2AX antibody (4411-PC, Trevigen) diluted 1/100 in 1×PBS, 1% BSA. Cells were washed three times with 1×PBS, 0.5% TritonX-100, then incubated for 1 hour at room temperature with rhodamine-conjugated goat anti-rabbit antibodies diluted 1/100 in 1×PBS, 1% BSA. Cells were visualized by epifluorescence microscopy.
Left panel: fluorescence of Dbait32H-FITC (SEQ ID NO: 1) (bright dots and patches) and DBS foci detected by immunofluorescence of γ-H2AX antibody in nuclei; Right panel: the same image of nuclei with DSB foci detected by immunofluorescence of γ-H2AX antibody and DAPI counterstaining. The arrows at the lower left corner show the absence of Dbait32H-FITC (SEQ ID NO: 1) and γ-H2AX signal in nucleus. […]

[6] = system: tumor tissues of K-Ras^V12G×Apc^1638N transgenic mouse; assay: Fluorescence microscopy of digestive tumor tissue of a treated transgenic mouse; assay type: in vivo; settings: oral, with 5FU+CPT11 for three days, sacrificed two hours after the last treatment
Method: Tumor samples prepared from animals treated with Dbait molecules tagged by fluorescein (Dbait32H-FITC) (SEQ ID NO: 1) and 5FU+CPT11 were analysed using immunofluorescence staining methods. γ-H2AX labeled foci were costained with fluorescent Dbait molecules, in reminiscence of the in vitro finding (cf. example 3.3 and 4). […] Then the tumor tissues were sampled and frozen at −80° C. For the analysis, 5 μm histological samples were made from the frozen tumor tissues by cryostat. DNA repair foci were detected by immunofluorescence with polyclonal rabbit anti-γ-H2AX antibody (Trevigen) diluted 1/500 in PBS, then with goat anti-rabbit antibody tagged by cyanine 3 (Jackson) diluted 1/200 in PBS. The samples were also counterstained by DAPI Samples were visualized by epifluorescence microscopy. […] Similar pattern was found for γ-H2AX sites (FIG. 5.3, panel B, right). The co-localized Dbait32H-FITC (SEQ ID NO: 1) and γ-H2AX signals were almost observed.

T1 sequence (P12956 whole entry): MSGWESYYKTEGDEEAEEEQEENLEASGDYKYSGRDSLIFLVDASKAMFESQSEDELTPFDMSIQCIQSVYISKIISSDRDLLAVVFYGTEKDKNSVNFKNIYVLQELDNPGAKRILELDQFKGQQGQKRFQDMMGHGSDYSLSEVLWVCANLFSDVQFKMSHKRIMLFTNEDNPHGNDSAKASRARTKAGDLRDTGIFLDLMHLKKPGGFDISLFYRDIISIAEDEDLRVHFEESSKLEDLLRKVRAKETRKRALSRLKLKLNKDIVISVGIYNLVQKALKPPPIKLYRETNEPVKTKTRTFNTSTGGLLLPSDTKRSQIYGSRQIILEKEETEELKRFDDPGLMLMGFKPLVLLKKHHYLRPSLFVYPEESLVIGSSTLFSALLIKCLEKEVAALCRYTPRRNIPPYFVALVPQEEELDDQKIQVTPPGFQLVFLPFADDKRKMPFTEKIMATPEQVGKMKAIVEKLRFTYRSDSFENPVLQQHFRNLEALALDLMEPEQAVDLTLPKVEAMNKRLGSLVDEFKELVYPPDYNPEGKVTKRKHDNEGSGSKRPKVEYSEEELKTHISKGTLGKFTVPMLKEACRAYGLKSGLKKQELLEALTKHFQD
T1 sequence (P13010 whole entry): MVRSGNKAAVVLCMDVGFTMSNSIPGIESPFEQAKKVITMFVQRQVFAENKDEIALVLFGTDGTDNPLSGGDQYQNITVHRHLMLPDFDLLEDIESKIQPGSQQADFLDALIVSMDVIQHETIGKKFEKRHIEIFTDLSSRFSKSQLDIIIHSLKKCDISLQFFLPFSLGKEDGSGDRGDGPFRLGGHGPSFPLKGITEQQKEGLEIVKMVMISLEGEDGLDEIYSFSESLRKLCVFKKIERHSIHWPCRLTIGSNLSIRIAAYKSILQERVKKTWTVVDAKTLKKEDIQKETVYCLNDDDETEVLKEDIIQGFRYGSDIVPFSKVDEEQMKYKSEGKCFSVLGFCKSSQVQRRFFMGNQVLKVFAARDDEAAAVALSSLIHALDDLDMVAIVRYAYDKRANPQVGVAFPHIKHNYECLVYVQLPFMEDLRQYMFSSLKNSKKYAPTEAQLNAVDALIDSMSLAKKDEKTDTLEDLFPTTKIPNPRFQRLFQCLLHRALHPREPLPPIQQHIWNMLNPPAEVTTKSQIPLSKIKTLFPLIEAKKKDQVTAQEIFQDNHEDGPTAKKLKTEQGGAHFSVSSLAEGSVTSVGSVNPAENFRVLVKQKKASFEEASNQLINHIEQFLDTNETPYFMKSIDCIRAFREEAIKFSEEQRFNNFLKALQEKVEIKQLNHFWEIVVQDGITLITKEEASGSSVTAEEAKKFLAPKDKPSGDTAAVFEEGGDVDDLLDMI

Row | Substance | retarded bands in band-shift assay (Ku complex) | cell death (cells in sub-G1 stage) (GMA32 cells [1]) | γ-H2AX DSB foci (cell response) [2] | phosphorylation of p53 serine 15 [3] | chemosensitization (clonal survival) (GMA32 cells [4]; GMA32, 200 nM nocodazole, 100 nM navelbine (vinorelbine) or 200 nM taxol (paclitaxel)) | radiosensitization (clonal survival) (GMA32 cells [4]; GMA32, 4 Gy irradiation) | persistence of DSB sites (γ-H2AX foci) [5] | distribution in tumor tissues [6]
1 | Dbait32: 32-bp linear double-stranded Dbait molecule (SEQ ID NO: 1) (ACGCACGGGTGTTGGGTCGTTTGTTCGGATCT; DNA, backbone not given here; linear DNA duplex, phosphorothioates at blunt ends, exact count not readable, further chemistry not fully specified) | two retarded band | Significant cell death | effectively trigger similar cell response as if DNA damages were occurred in nuclei | highly phosphorylated | chemosensitization was also observed | radiosensitization to 4 Gy irradiation was observed | – | –
2 | Dbait32H-FITC: Dbait32H labelled via a T tagged with fluorescein (DNA ACGCACGGGTGTTGGGTCGTTTGTTCGGATCT; DNA, backbone not given here; fluorescein on a T, hairpin, hexaethyleneglycol loop, phosphorothioate blunt end, further chemistry not fully specified) | – | – | – | – | – | – | DSB sites persisted | heterogeneously disseminated in tumor tissues; also recorded: preferential nucleus localization
